Measurements: patent US5140018A, “1,3,2-benzodithiazole-1-oxide compounds” (Abbott Laboratories, priority 1991, dated 1992)
≈ marks a conversion by molar mass, not a printed value.

Columns and labels:
fungi = settings: cited from earlier work
[1] = in vivo, cited from earlier work
[2] = in vivo; cited from earlier work
[3] = test system: biosynthesis of testosterone; settings: cited from earlier work
[4] = test system: Candida albicans ATCC 10231; assay: In vitro antifungal MIC, Candida albicans ATCC 10231; format: cell-based; settings: Candida albicans, ATCC10231, 48 h
Protocol: (§1) The in vitro antifungal activity of the compounds of the present invention against a variety of fungiwas determined as follow: Test medium was prepared by dissolving first 5 g of dextrose and then 6.7 g of Bacto Yeast Nitrogen Base® (commercially available from Difco Laboratories) in 100 mL of distilled water. The solution was filter-sterilized and diluted 1:10 with 0.01M pH 8.0 phosphate buffer solution, and the final pH of the medium adjusted to about pH 7.0 when necessary with either 0.1N hydrochloric acid solution of 0.1N sodium hydroxide solution. […] These concentrated stock solutions were diluted to a concentration of 200 μg/mL (twice the highest concentration desired for testing) with the test medium. Amphotericin B, similarly prepared, was used as a reference antifungal agent.
(§2) The test organisms were then inoculated into test tubes containing approximately 3 to 10 mL of test medium and the test tubes incubated overnight at 37° C. A sample of each overnight culture was placed in a test tube and diluted using the test medium until a reading of 95% transmittance was obtained in a conventional UV/visible spectrophotometer set to 560 nm. The adjusted cultures were then diluted 1:50 with test medium. These diluted cultures served as the inocula for the assays which follow and were used within 15 minutes of preparation.
(§3) Next, 2-fold serial dilutions of each test compound in test medium were prepared in a 96-well microtiter plate using calibrated microdiluters attached to an automatic (hand-held) diluter (available from Dynatech Laboratories).
(§4) Using sterile calibrated droppers or a multi-point dispenser, the diluted inoculum suspension was added to each of the wells in the plate. When inoculation was complete, the microtiter tray was covered with a plastic plate sealer to minimize evaporation. After the plate had been sealed, a hole was made above each well with a sterile 26-gauge syringe needle in order to allow gas exchange. If plate sealers were not available, the microtiter trays were stacked in groups of five or less with an empty tray on top. The microtiter trays were then incubated in a humidified chamber at 35°-37° C. for 48 hours or until growth was visible in the growth control wells.
(§5) The minimum inhibitory concentration (MIC) was defined as the lowest concentration of test compound yielding no growth, a slight haze or sparsely isolated colonies on the inoculum spot as compared to the growth control containing no test compound.

[5] = test system: Torulopsis glabrata ATCC 15545; assay: In vitro antifungal MIC, Torulopsis glabrata ATCC 15545; format: cell-based; settings: Nakaseomyces glabratus, ATCC15545, 48 h
Protocol: as §1, §2, §3, §4, §5

Candida albicans 579A = assay: In vitro antifungal MIC, Candida albicans 579A; format: cell-based; settings: Candida albicans, 579A, 48 h
Protocol: as §1, §2, §3, §4, §5

[6] = test system: Candida tropicalis NRRL-Y-112; assay: In vitro antifungal MIC, Candida tropicalis NRRL-Y-112; format: cell-based; settings: Candida tropicalis, NRRLY112, 48 h
Protocol: as §1, §2, §3, §4, §5

Candida albicans CCH 442 = assay: In vitro antifungal MIC, Candida albicans CCH 442; format: cell-based; settings: Candida albicans, CCH442, 48 h
Protocol: as §1, §2, §3, §4, §5

[7] = test system: Candida albicans ATCC 62376; assay: In vitro antifungal MIC, Candida albicans ATCC 62376; format: cell-based; settings: Candida albicans, ATCC62376, 48 h
Protocol: as §1, §2, §3, §4, §5

kidney function = settings: patients treated with amphotericin B; cited from earlier work
Candida kefyr ATCC 28838 = assay: In vitro antifungal MIC, Candida kefyr ATCC 28838; format: cell-based; settings: Kluyveromyces marxianus, ATCC28838, 48 h
Protocol: as §1, §2, §3, §4, §5

[8] = test system: Cryptococcus albidus ATCC 34140; assay: In vitro antifungal MIC, Cryptococcus albidus ATCC 34140; format: cell-based; settings: Naganishia albida, ATCC34140, 48 h
Protocol: as §1, §2, §3, §4, §5

[9] = test system: Aspergillus niger ATCC 16404; assay: In vitro antifungal MIC, Aspergillus niger ATCC 16404; format: cell-based; settings: Aspergillus niger, ATCC16404, 48 h
Protocol: as §1, §2, §3, §4, §5

[10] = test system: Candida albicans ATCC 38247; assay: In vitro antifungal MIC, Candida albicans ATCC 38247; format: cell-based; settings: Candida albicans, ATCC38247, 48 h
Protocol: as §1, §2, §3, §4, §5

Row | SMILES | fungistatic/fungicidal action (fungi) | oral activity ([1]; po) | absorption into the cerebrospinal fluid [1] | hepatotoxicity [2] | inhibition of testosterone biosynthesis [3] | MIC [4] | oral bioavailability ([1]; po) | mammalian toxicity [2] | untoward effects [2] | MIC [5] | MIC (Candida albicans 579A) | MIC [6] | MIC (Candida albicans CCH 442) | MIC [7] | patients experiencing impaired kidney function (kidney function) | MIC (Candida kefyr ATCC 28838) | MIC [8] | MIC [9] | MIC [10]
1 | CC(=O)N1CCN(c2ccc(OCC3COC(Cn4ccnc4)(c4ccc(Cl)cc4Cl)O3)cc2)CC1 (centres unmarked) [Ketoconazole] | fungistatic and not fungicidal | orally active | poorly absorbed | hepatotoxins | inhibitors of the biosynthesis of testosterone | – | – | – | – | – | – | – | – | – | – | – | – | – | –
2 | C[C@@H]1[C@H](O)[C@@H](C)/C=C/C=C/C=C/C=C/C=C/C=C/C=C/[C@H](O[C@@H]2O[C@H](C)[C@@H](O)[C@H](N)[C@@H]2O)C[C@@H]2O[C@](O)(C[C@@H](O)C[C@@H](O)[C@H](O)CC[C@@H](O)C[C@@H](O)CC(=O)O[C@H]1C)C[C@H](O)[C@H]2C(=O)O [Amphotericin B, reference compound] | fungicidal | – | – | – | – | 1.56 µg/mL (≈ 1.69 µM) | poor | considerable | anaphylaxis, thrombocytopenia, flushing, generalized pain, convulsions, chills, fever, phlebitis, headache, anemia, anorexia and decreased kidney function | 3.12 µg/mL (≈ 3.38 µM) | 1.56 µg/mL (≈ 1.69 µM) | 1.56 µg/mL (≈ 1.69 µM) | 1.56 µg/mL (≈ 1.69 µM) | 1.56 µg/mL (≈ 1.69 µM) | 80% | 1.56 µg/mL (≈ 1.69 µM) | 3.12 µg/mL (≈ 3.38 µM) | 3.12 µg/mL (≈ 3.38 µM) | 12.5 µg/mL (≈ 13.5 µM)
